Values quoted from earlier work, collected in patent publication US4390710A, “Catalyst system for manufacturing p-chlorophenyl-N-methyl carbamate” (PPG Industries, Inc., priority 1981, dated 1983).

Settings: organic herbicides such as isopropyl-N-(3-chlorophenyl) carbamate and isopropyl-N-phenyl carbamate

CNC(=O)Oc1ccc(Cl)cc1 [p-chlorophenyl-N-methyl carbamate]
extending the soil life of organic herbicides: capable of extending the soil life of many organic herbicides
